Laboratory results as given in patent publication US8641948B2, “Method of making solid dispersions of highly crystalline therapeutic compounds” (Novartis AG, priority 2006, dated 2014).

Assay: Stability of the crystalline therapeutic compound (heat, light, oxidation)
Format: physicochemical
Source text: An example of a poorly water soluble therapeutic compound appropriate for the present invention is midostaurin which is a protein Kinase C inhibitor.

- stability to light and oxidation: light-sensitive and oxidizes
- thermal stability (at melting point of about 260° C.): decomposes upon melting
Structure (SMILES): CO[C@@H]1[C@H](N(C)C(=O)c2ccccc2)C[C@H]2O[C@]1(C)n1c3ccccc3c3c4c(c5c6ccccc6n2c5c31)C(=O)NC4 [midostaurin]
